For data set [1], the target named is T1, PPARδ (Homo sapiens, UniProt Q03181).
T1 construct: expressed in transfected cells; host or cells: Hela cells
T1 sequence (Q03181 1-441): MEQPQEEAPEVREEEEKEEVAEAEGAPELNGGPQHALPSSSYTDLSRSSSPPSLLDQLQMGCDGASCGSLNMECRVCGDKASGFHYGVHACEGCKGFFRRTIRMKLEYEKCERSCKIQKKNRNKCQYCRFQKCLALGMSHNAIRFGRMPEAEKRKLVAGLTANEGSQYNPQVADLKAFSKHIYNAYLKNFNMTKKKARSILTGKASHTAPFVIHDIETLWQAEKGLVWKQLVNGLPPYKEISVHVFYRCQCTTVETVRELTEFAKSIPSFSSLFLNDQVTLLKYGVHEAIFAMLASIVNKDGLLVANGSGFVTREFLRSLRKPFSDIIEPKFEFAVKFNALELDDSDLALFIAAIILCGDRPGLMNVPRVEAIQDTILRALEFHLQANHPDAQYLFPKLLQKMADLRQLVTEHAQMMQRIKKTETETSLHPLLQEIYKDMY
As to the kind of experiment: Hela cell/luciferase reporter gene method, PPARδ agonist activity. Format: cell-based. The settings on record: Hela cells, pPPRE3-TK-Luciferase reporter, 24 hrs incubation; read-out: agonistic activity on PPARδ (EC50). On the procedure: This example measures the biological activity of a PPAR agonist using the Hela cell/luciferase reporter gene method.
The target plasmids PCMV PPARα (Ampicillin+), PCMV PPARγ (Ampicillin+), PCMV PPARδ (Ampicillin+), and pPPRE3-TK-Luciferase (Ampicillin+) were introduced into DH5a competent cells by heat shock treatment, respectively. After being incubated for 1 hour at 37° C. with shaking (180 rpm), the cells were inoculated on LB agar solid medium containing antibiotic Ampicillin, and invertedly cultured at 37° C. for 12-16 hours. Then the monoclonal colony cultured on the medium was taken and inoculated into LB liquid medium for expanded culture. […] The plasmid obtained by centrifugation was suspended in TE buffer, and the plasmid concentration was measured and the mixture was stored at −20° C. Hela cells in the exponential phase were seeded in 6-well plates (8-10^5 cells/well), and after 6-8 hours of culture, the cells were transfected using Lipofectamine® 3000 Transfection Reagent (Invitrogen; #L3000015). A plasmid containing a PPAR binding site (peroxisome proliferator response element, PPRE) and a firefly luciferase gene (pPPRE3-TK-Luciferase) and PPAR expression vector were co-transfected into a Hela cell with a total amount of plasmid DNA of 2.5 ug (the mass ratio of each PPAR expression vector is pPPRE:PPARα=6:1, pPPRE:PPARδ=8:1, and pPPRE:PPARγ=2:1) to construct a drug screening cell model for PPAR agonists. PPAR was binded to the ligand and then binded to the peroxisome proliferator response element (PPRE), thereby initiating downstream firefly luciferase expression and its expression intensity was directly proportional to the degree of PPAR activation. The cells after 24 hours transfection were prepared into a cell suspension with a cell concentration of […] by a complete culture solution, and seeded into a 96-well plate with 100 ul per well. After overnight culture, the medium was changed to a medium containing 1% FBS. 10 mM candidate compound stock (1000×) were 4-fold diluted in DMSO for 8 points, then supplemented with medium containing 1% FBS to a final concentration of 50 uM (5×) by addition of 25 μl of 5× compound diluent to each well in different concentration gradients and incubated under 37° C., 5% CO2 incubator for 24 hrs. The 96-well plate was taken out and 30 μl of Bright-Glo™ Luciferase Assay System (Promega #E2620) was added to each well. The Luciferase luminescence intensity was measured by a SynergyH1 full-function microplate detector. The obtained data was used to calculate EC50 using GraphPad Prism 5.0 software to determine the biological activity of the compound.

Data set [2] is described as follows: Pharmacokinetic (PK) experiments after intragastric administration in rats. The settings on record: for AUC(0-inf) / AUC(0-t) / Cmax / Tmax / half-life: male, SD, rat, plasma, po, intragastric administration 20 mg/kg; for half-life: read-out: Terminal T1/2 (converted). Format: in vivo, SD rats. On the procedure:
Male SD rats, weighing 250-300 grams, were fasted overnight before testing. The test compound was dissolved in 30% sulfobutyl-R-cyclodextrin (SBE-β-CD) and administered intragastrically at a dose of 20 mg/kg. Blood was collected 15 minutes, 30 minutes, and 1, 2, 3, 4, […] and 24 hours after the administration. About 0.3 ml of blood was collected at each time point, placed in a centrifuge tube containing K2-EDTA (dipotassium ethylenediamine tetraacetate) and centrifuged (2,000 g, 10 minutes, 4° C.) to take the plasma, which was stored in an ultra-low temperature refrigerator at −80° C. A 50 μL plasma sample was mixed with 5 μl of internal standard (IS) and extracted with ethyl acetate. The residue was redissolved in acetonitrile after drying under vacuum. The sample was filtered and injected into an LC-MS/MS for analysis.

In the case of `CSc1ccc2cc(C(=O)/C=C/c3cc(Cl)c(OC(C)(C)C(=O)O)c(Cl)c3)oc2c1` [Compound 100, (E)-2-(2,6-dichloro-4-(3-(6-(methylthio)benzofuran-2-yl)-3-oxoprop-1-en-1-yl)phenoxy)-2-methylpropanoic acid], the EC50 in data set [1] came to 87.1 nM. For the same compound, in data set [2], the AUC(0-inf) was 14000 ng·h/mL, the AUC(0-t) stood at 13800 ng·h/mL, the Cmax worked out at 7730 ng/mL and the Tmax amounted to 0.25 h. For the same compound, in data set [2], the half-life is 4.41 h, the “absorption after oral administration compared with Elafibranor (in words)” value was “good absorption”, the “blood exposure after oral administration compared with Elafibranor (in words)” value was “highly effective blood exposure” and the “half-life after oral administration compared with Elafibranor (in words)” value is “significantly prolonged half-life”.
As for `CSc1ccc2c(C)c(C(=O)/C=C/c3cc(Cl)c(OC(C)(C)C(=O)O)c(Cl)c3)oc2c1` [Compound 103, (E)-2-(2,6-dichloro-4-(3-(3-methyl-6-(methylthio)benzofuran-2-yl)-3-oxoprop-1-en-1-yl)phenoxy)-2-methylpropanoic acid], the EC50 in data set [1] turned out to be 164 nM. Also, in data set [2], the AUC(0-inf) turned out to be 50900 ng·h/mL, the AUC(0-t) was determined as 50400 ng·h/mL, the concentration peaked (Cmax) at 5030 ng/mL and the Tmax was 4.08 h. In data set [2], the half-life is 3.28 h, the “absorption after oral administration compared with Elafibranor (in words)” value is given as “good absorption”, the “blood exposure after oral administration compared with Elafibranor (in words)” value is recorded as “highly effective blood exposure” and the “half-life after oral administration compared with Elafibranor (in words)” value is on record as “significantly prolonged half-life”.

For the origin of these results see patent publication US11306102B2, “1,3-di-substituted ketene compound and application thereof” (BEBETTER MED INC., priority 2017, dated 2022).
